Measured values as given in article PMC11475281, “A Novel Liver Cancer-Selective Histone Deacetylase Inhibitor Is Effective against Hepatocellular Carcinoma and Induces Durable Responses with Immunotherapy” (ACS Pharmacology & Translational Science, 2024).
pIC50: −log10 of the molar value.

Legend:
[1] = Plasma stability (Cyprotex); type: in vitro ADME
Experimental: (§1) Based on the data from the aforementioned in vitro studies, we selected STR-V-53 as a candidate for further evaluation in xenograft and murine models of HCC. Before the efficacy studies, we first determined the plasma stability (murine and human) and maximum tolerated dose (MTD) of STR-V-53 in healthy C57Bl/6 mice. […]. For MTD determination, STR-V-53 was administered via i.p. injection using a formulation containing excipients found in FDA-approved drugs—dimethylacetamide (DMA)/Cremophor RH 40 (CRH)/Water (10%/20%/70%)—that we developed.[17] […]
(§2) Then cells were treated with another 500 µL of 100 ug/mL PI staining at room temperature for 30 min. The cell cycle was analyzed with BD FACS Aria Illu analyzer, and the data were […]
(§3) The stability of STR-V-53 in murine and human plasmas was determined through a contract agreement with Cyprotex, an Evotec Company (https://www.cyprotex.com) […]
(§4) days in Kolliphor/DMA/water vehicle. We measured body weight and monitored daily food consumption, overall health, and mortality. […]
(§5) C57Bl/6 mice, 6–8 weeks old, 3 males and 3 females per treatment group, were injected intraperitoneally with STR-V-53 at […] in Kolliphor/DMA/water vehicle. Eight hours after the injection, organs were harvested and frozen at −80 °C for subsequent quantification by LC-

Hep3B = assay: MTS cell viability assay, 72 h; type: cell-based; settings: Homo sapiens, Figure 1g, read-out: Anti-proliferation effects IC50 (μM) Hep3 B
Description: (§6) We then screened STR-V-53 and all the synthesized glycosylated HDACi for their effects on the viability of three cell lines: A549 (lung adenocarcinoma), Hep-G2 (HCC), and VERO (a normal kidney epithelial cell). We used SORA and STR-V-48, a previously disclosed nonglycosylated compound, as controls.[25] […] Additionally, compound STR-V-167, the peracetylated analog of STR-V-53, largely retained the Hep-G2 selectivity of STR-V-53 (Table S2). Subsequently, we evaluated the effects of STR-V-53 on cell proliferation using a panel of human HCC cell lines (Huh-7, SK-Hep-1, and Hep3B) as well as Kupffer cells (liver resident macrophages) by MTS assay. We observed that STR-V-53 is 7- to 16-fold more cytotoxic against these HCC cell lines relative to the Kupffer cells (Figure 1g). […] Based on their weak HDAC and cell proliferation inhibition activities, we de-emphasized further evaluation of the class III compounds.
(§7) 10-017-CV), supplemented with 10% fetal bovine serum (FBS) (Corning, 35-010-CV). Hep-G2 cells were cultured in phenol red-free Minimum Essential Medium (MEM) (Corning, 17-305-CV), supplemented with 10% fetal bovine serum (FBS). SK-Hep-1 in ATCC-formulated EMEM (ATCC® 30–2003™); Huh-7 in DMEM (containing 4 mM L-glutamine and 1 g/L glucose) with […]
(§8) Kupffer Cell Media (Sekisui XenoTech, LLC, Cat. #K8700). Cells were seeded into a 96-well plate (2000 counts/100uL) for 24 h prior to treatment and then treated with various drug concentrations for 72 h. All drugs were dissolved in media with DMSO concentration maintained at 1%. The effect of compounds on cell viability was measured using the MTS assay (CellTiter 96 Aqueous One Solution and CellTiter 96 Non-Radioactive Cell Proliferation Assays, Promega, Madison, WI) as described by the manufacturer. IC50s were determined using Prism GraphPad 8. […]

Huh-7 = assay: MTS cell viability assay, 72 h; type: cell-based; settings: Homo sapiens, Figure 1g, read-out: Anti-proliferation effects IC50 (μM) Huh-7
Description: as §6, §7, §8

SK-Hep-1 = assay: MTS cell viability assay, 72 h; type: cell-based; settings: Homo sapiens, SK-HEP1; Figure 1g; read-out: Anti-proliferation effects IC50 (μM) SK-Hep-1
Description: as §6, §7, §8

[2] = system: Kupffer cells (liver resident macrophages); assay: MTS cell viability assay, 72 h; type: cell-based; settings: Macrophage; Figure 1g; read-out: Anti-proliferation effects IC50 (μM) Kupffer
Description: as §6, §7, §8

hERG = hERG (Homo sapiens, UniProt Q12809); assay: In vitro hERG inhibition assay; settings: maximum tested concentration of 100 μM
HDAC10 = HDAC10 (Homo sapiens, UniProt Q969S8); assay: HDAC isoform inhibition (BPS Bioscience)
healthy C57Bl/6 mice = assay: Maximum tolerated dose determination; type: in vivo; settings: 100 mg/kg i.p. daily for 6 days
Experimental: as §1, §2, §3, §4, §5

Sequence of HDAC10 (Q969S8 whole entry, canonical isoform): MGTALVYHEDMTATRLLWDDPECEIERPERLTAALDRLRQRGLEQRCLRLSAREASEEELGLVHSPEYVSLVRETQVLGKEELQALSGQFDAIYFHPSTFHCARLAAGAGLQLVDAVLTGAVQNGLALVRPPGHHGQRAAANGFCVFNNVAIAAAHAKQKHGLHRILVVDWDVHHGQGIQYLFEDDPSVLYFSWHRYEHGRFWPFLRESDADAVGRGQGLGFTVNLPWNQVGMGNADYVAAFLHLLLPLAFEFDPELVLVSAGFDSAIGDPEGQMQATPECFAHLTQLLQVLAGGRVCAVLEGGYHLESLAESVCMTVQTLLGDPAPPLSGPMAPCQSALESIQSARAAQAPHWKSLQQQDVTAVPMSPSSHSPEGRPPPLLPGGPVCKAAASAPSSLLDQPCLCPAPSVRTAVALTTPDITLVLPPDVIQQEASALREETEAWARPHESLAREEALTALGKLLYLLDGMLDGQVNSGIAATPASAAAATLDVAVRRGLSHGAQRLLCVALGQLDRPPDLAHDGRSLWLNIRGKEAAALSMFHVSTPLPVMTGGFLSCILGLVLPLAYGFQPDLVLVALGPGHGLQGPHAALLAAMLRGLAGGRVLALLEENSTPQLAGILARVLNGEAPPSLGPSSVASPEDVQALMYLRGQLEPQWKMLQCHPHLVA
Sequence of hERG (Q12809 whole entry, canonical isoform): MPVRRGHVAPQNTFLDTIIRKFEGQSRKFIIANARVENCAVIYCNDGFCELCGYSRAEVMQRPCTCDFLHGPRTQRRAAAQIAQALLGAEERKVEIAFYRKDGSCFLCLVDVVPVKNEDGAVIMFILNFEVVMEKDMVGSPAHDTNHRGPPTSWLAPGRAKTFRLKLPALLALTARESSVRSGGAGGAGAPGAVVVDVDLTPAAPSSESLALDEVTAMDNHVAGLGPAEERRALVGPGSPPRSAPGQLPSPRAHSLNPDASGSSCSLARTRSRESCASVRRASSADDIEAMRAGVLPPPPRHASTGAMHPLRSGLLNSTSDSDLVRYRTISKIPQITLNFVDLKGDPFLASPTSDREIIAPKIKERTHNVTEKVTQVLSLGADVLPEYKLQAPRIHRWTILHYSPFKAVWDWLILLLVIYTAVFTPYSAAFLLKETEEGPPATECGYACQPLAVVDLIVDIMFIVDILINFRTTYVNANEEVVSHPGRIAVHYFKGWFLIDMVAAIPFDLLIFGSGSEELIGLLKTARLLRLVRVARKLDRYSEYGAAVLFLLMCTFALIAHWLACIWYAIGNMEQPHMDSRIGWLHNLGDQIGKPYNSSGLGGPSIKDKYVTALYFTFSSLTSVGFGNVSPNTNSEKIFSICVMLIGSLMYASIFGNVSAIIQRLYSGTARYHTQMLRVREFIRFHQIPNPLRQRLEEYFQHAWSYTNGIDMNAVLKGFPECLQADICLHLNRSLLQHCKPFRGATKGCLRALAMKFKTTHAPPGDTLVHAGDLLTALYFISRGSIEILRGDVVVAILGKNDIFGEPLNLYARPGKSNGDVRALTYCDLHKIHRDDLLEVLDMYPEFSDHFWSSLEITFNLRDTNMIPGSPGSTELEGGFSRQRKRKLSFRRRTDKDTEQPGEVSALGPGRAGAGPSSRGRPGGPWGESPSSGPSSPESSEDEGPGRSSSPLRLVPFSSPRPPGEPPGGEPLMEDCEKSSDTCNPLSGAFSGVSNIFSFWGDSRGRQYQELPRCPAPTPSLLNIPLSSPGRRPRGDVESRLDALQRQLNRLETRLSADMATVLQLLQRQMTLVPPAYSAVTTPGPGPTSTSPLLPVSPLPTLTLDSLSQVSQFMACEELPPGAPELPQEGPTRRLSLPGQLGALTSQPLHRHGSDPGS

SMILES: O=C(CCCCCCn1cc(-c2ccc(O[C@H]3O[C@H](CO)[C@@H](O)[C@H](O)[C@H]3O)cc2)nn1)NO [STR-V-53]
- half-life ([1]; human plasma): > 1200 min
- half-life ([1]; mouse, murine plasma): 46 min
- IC50 (Hep3B): 11.1 µM
- IC50 (Huh-7): 6.25 µM
- IC50 (SK-Hep-1): 13.9 µM
- IC50 [2]: > 100 µM
- hERG inhibition (hERG): no inhibition
- pIC50 (HDAC10): 7.27
- Body weight as an indicator of toxicity (healthy C57Bl/6 mice): no significant body weight loss
